Measured values reported in patent publication US7598255B2 (Janssen Pharmaceutica NV, priority 2005, dated 2009).
Where a name gives a salt, the structure may show the parent alone.

Columns and labels:
rat 5-HT7a receptor = rat 5-HT7a receptor (Rattus norvegicus, UniProt P32305); experiment: Affinity for 5-HT7 receptor binding sites, radioligand binding with [3H]5-CT; details: membranes of HEK-293 cells with rat 5-HT7a, 1 nM [3H]5-CT
Outline: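 Competition binding on membranes from HEK-293 cells stably expressing rat 5-HT7a, 135 μg protein/mL in 50 mM Tris-HCl pH 7.5, 5 mM EDTA. Incubated 60 min at RT with 1 nM [3H]5-CT and increasing compound concentrations; nonspecific binding with 10 μM 5-HT. Filtration and scintillation counting, in triplicate.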

5-HT2B receptor = 5-HT2B receptor (Homo sapiens, UniProt P41595); experiment: Affinity for 5HT2 receptor binding sites, h5-HT2B, [3H]mesulergine; details: CHO h5-HT2B membranes
[1] = target: T1, human recombinant 5-HT2C receptor (Homo sapiens, UniProt P28335); experiment: Affinity for 5HT2 receptor binding sites, h5-HT2C, [3H]mesulergine; details: CHO h5-HT2C membranes
T1 sequence (P28335 33-458): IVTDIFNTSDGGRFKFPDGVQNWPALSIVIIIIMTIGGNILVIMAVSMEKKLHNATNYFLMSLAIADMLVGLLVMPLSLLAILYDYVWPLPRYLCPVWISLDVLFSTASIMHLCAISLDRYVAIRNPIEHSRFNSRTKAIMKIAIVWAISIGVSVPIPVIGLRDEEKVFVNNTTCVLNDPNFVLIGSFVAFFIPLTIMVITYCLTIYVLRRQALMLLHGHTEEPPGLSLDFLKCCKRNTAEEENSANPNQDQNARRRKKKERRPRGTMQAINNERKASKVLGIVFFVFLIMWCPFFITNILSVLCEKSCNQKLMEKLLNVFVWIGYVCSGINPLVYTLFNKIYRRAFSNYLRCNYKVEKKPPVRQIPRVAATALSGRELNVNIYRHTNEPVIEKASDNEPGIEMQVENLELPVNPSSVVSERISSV
Method: (§1) Sigmoidal inhibition curves were generated and fitted by nonlinear regression analysis (GraphPad Prism).
Receptor binding was performed using the human recombinant 5-HT2A (GB: X57830), 5-HT2B (GB: Z36748) and 5-HT2C (GB: M81778) receptors. The affinity of the compounds for the 3 different human 5-HT2 receptor subtypes was evaluated by competitive radioligand binding assays using [^3H]ketanserin (h5-HT2A) or [^3H]mesulergine (h5-HT2B and h5-HT2C). The assays were performed on membranes prepared from NIH3T3 stably transfected with h5-HT2A or CHO stably transfected with h5-HT2B and h5-HT2C.

[2] = target: human recombinant 5-HT6 receptor (Homo sapiens, UniProt P50406); experiment: Affinity for 5-HT6 receptor binding sites, [3H]LSD; details: HEK-293 h5-HT6 membranes
5-HT2A receptor = 5-HT2A receptor (Homo sapiens, UniProt P28223); experiment: Affinity for 5-HT2A receptor binding sites, radioligand binding with [3H]ketanserin; details: read-out: Ki 5-HT2A, rat cortex membranes (assay 2) or NIH3T3 h5-HT2A membranes (assay 3), table does not say which
Method: as §1
The affinity of the compounds for the rat 5-HT2A receptor was evaluated by competitive radioligand binding assay using [^3H]ketanserine as the radioligand. […] Brain tissue (rat cortex) was homogenized in 20 volumes per wet weight tissue of Tris-HCl buffer (50 mM, pH 7.4). The total membrane fraction was collected by centrifugation and washed by subsequent centrifugation runs (25 min at 25,000 g at 4° C.). Membranes were re-suspended in Tris-HCl buffer (50 mM, pH 7.4) containing 1 nM [^3H]ketanserin. Non-specific binding was estimated in the presence of 10 μM risperidone. The incubation was terminated by rapid filtration over Whatman GF/B filters pre-soaked in 0.1% polyethylenimine, and one washing step with 1 mL ice-cold Tris-HCl buffer, pH 7.4.

Chain of 5-HT2B receptor (P41595 whole entry): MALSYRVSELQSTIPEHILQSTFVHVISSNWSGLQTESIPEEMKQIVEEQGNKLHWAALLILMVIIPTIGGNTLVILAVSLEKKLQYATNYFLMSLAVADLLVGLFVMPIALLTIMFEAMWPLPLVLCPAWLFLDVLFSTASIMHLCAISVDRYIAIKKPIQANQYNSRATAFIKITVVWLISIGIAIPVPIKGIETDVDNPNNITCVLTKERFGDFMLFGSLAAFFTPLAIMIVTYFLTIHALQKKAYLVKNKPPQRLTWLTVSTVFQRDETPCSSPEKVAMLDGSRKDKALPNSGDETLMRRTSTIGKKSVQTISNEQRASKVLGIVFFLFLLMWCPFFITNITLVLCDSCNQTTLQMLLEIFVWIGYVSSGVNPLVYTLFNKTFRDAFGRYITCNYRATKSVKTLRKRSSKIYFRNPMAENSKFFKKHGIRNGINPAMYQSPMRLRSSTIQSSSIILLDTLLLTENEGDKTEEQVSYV
Chain of human recombinant 5-HT6 receptor (P50406 whole entry): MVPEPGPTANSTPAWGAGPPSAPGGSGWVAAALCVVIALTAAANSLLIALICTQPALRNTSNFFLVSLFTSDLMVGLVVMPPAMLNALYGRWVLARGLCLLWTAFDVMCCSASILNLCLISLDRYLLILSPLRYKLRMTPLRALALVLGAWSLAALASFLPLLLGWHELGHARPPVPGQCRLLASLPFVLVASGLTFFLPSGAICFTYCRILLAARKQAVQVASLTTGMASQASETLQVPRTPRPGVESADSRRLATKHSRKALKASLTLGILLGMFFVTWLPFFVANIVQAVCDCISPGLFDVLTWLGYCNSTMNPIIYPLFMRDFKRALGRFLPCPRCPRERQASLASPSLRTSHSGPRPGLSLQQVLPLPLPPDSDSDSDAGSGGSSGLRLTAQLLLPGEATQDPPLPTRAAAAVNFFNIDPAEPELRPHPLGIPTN
Chain of rat 5-HT7a receptor (P32305 whole entry): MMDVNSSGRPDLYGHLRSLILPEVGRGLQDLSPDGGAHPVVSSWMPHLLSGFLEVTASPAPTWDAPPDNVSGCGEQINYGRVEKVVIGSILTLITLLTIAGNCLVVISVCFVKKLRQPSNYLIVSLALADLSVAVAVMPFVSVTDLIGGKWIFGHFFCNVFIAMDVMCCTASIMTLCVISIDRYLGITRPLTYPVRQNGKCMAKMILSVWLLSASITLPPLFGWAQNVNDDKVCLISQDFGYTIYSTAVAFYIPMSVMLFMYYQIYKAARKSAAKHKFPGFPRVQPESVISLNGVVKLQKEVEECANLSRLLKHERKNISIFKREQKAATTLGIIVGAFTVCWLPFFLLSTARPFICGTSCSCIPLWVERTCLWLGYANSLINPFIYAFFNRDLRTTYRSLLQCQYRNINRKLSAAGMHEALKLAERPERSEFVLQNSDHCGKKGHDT

Structure (SMILES) | Ki (rat 5-HT7a receptor) [nM] | Ki (5-HT2B receptor) [nM] | Ki [1] [nM] | Ki [2] [nM] | Ki (5-HT2A receptor) [nM]
CCC(C)c1nc2c(c(-c3ccc(F)cc3)n1)CNCC2 (stereo not shown) [Example 3, 2-sec-Butyl-4-(4-fluoro-phenyl)-5,6,7,8-tetrahydro-pyrido[4,3-d]pyrimidine hydrochloride] | > 10000 | 2250 | 1020 | > 10000 | 
Cc1ccc(-c2nc(Cc3ccccc3)nc3c2CNCC3)cc1 [Example 8, 2-Benzyl-4-p-tolyl-5,6,7,8-tetrahydro-pyrido[4,3-d]pyrimidine] | 1000 | 1000 | 320 | 200 | 20
CC(C)c1nc2c(c(-c3ccc(Cl)cc3)n1)CNCC2 [Example 29, 4-(4-Chloro-phenyl)-2-isopropyl-5,6,7,8-tetrahydro-pyrido[4,3-d]pyrimidine] | > 10000 | 1600 | 2000 | > 10000 | 240
Fc1ccc(-c2nc(C3CCCC3)nc3c2CCNCC3)cc1 [Example 46, 2-Cyclopentyl-4-(4-fluoro-phenyl)-6,7,8,9-tetrahydro-5H-pyrimido[4,5-d]azepine] | 120 | 30 | 200 | 100 | 14
Cc1ccc(-c2nc(C3CCCC3)nc3c2CCNCC3)cc1 [Example 47, 2-Cyclopentyl-4-p-tolyl-6,7,8,9-tetrahydro-5H-pyrimido[4,5-d]azepine] | 30 | 1 | 22 | 12 | 
COc1ccc(-c2nc(C3CCCC3)nc3c2CCNCC3)cc1 [Example 48, 2-Cyclopentyl-4-(4-methoxy-phenyl)-6,7,8,9-tetrahydro-5H-pyrimido[4,5-d]azepine] | 40 | 3 | 100 | 24 | 20
N#Cc1ccc(-c2nc(C3CCCC3)nc3c2CCNCC3)cc1 [Example 49, 4-(2-Cyclopentyl-6,7,8,9-tetrahydro-5H-pyrimido[4,5-d]azepin-4-yl)-benzonitrile] | 300 | 25 | 400 | 200 | 50
Fc1ccc(-c2nc(Cc3ccccc3)nc3c2CCNCC3)cc1 [Example 54, 2-Benzyl-4-(4-fluoro-phenyl)-6,7,8,9-tetrahydro-5H-pyrimido[4,5-d]azepine] | 5000 | 30 | 20 | 30 | 0.55
Cc1ccc(-c2nc(Cc3ccccc3)nc3c2CCNCC3)cc1 [Example 55, 2-Benzyl-4-p-tolyl-6,7,8,9-tetrahydro-5H-pyrimido[4,5-d]azepine] | 35 | 2.5 | 16 | 8.5 | 0.42
FC(F)(F)c1ccc(-c2nc(Cc3ccccc3)nc3c2CCNCC3)cc1 [Example 56, 2-Benzyl-4-(4-trifluoromethyl-phenyl)-6,7,8,9-tetrahydro-5H-pyrimido[4,5-d]azepine] | 180 | 22 | 38 | 30 | 0.8
CN1CCc2nc(C3CCCC3)nc(-c3ccc(F)cc3)c2CC1 [Example 58, 2-Cyclopentyl-4-(4-fluoro-phenyl)-7-methyl-6,7,8,9-tetrahydro-5H-pyrimido[4,5-d]azepine] | > 10000 | 40 | 30 | 100 | 2
Cc1ccc(-c2nc(C3CCCC3)nc3c2CCN(C)CC3)cc1 [Example 59, 2-Cyclopentyl-7-methyl-4-p-tolyl-6,7,8,9-tetrahydro-5H-pyrimido[4,5-d]azepine] | 100 | 7.8 | 29 | 20 | 1.5
COc1ccc(-c2nc(C3CCCC3)nc3c2CCN(C)CC3)cc1 [Example 60, 2-Cyclopentyl-4-(4-methoxy-phenyl)-7-methyl-6,7,8,9-tetrahydro-5H-pyrimido[4,5-d]azepine] | 400 | 10 | 60 | 60 | 6
Cc1ccc(-c2nc(Cc3ccccc3)nc3c2CCN(C)CC3)cc1 [Example 61, 2-Benzyl-7-methyl-4-p-tolyl-6,7,8,9-tetrahydro-5H-pyrimido[4,5-d]azepine] | 250 | 15 | 35 | 20 | 1.9
CC(C)c1nc2c(c(-c3ccc(F)cc3)n1)CCCNC2 [Example 65, 4-(4-Fluoro-phenyl)-2-isopropyl-6,7,8,9-tetrahydro-5H-pyrimido[4,5-c]azepine hydrochloride] | > 10000 | 300 | 570 | > 10000 | 20
Fc1ccc(-c2nc(Cc3ccccc3)nc3c2CNCCC3)cc1 [Example 69, 2-Benzyl-4-(4-fluoro-phenyl)-6,7,8,9-tetrahydro-5H-1,3,6-triaza-benzocycloheptene hydrochloride] | > 10000 | > 10000 | 650 | 7100 | 
Fc1ccc(-c2nc(Cc3ccccc3)nc3c2CCN(Cc2ccccc2)C3)cc1 [Example 70, 2,7-Dibenzyl-4-(4-fluoro-phenyl)-5,6,7,8-tetrahydro-pyrido[3,4-d]pyrimidine hydrochloride] | > 10000 | > 10000 | 3730 | 250 | 117
CC(C)c1nc(-c2ccsc2)c2c(n1)C(C)CNC2 (stereo not shown) [Example 105, 2-Isopropyl-8-methyl-4-thiophen-3-yl-5,6,7,8-tetrahydro-pyrido[4,3-d]pyrimidine] | > 10000 | 100 | 400 |  | 40
CC(C)c1nc2c(c(-c3ccc(F)cc3)n1)CN(Cc1ccccc1)C2 [Example 106, hydrochloride] | > 10000 | 6300 | > 10000 |  | 90
CNC1CCc2c(nc(C(C)C)nc2-c2ccc(F)cc2)C1 (stereo not shown) [Example 108, [4-(4-Fluoro-phenyl)-2-isopropyl-5,6,7,8-tetrahydro-quinazolin-7-yl]-methyl-amine hydrochloride] | > 10000 | 42 | 1000 |  | 18
CC(C)c1nc2c(c(-c3ccc(F)cc3)n1)CCC(O)C2 (stereo not shown) [Example 110, 4-(4-Fluoro-phenyl)-2-isopropyl-5,6,7,8-tetrahydro-quinazolin-7-ol] | > 10000 | 1200 | 4000 |  | 220
CC(C)c1nc2c(c(-c3ccc(F)cc3)n1)CCCC2 [Example 111, 4-(4-Fluoro-phenyl)-2-isopropyl-5,6,7,8-tetrahydro-quinazoline] | > 10000 | 3500 | > 10000 |  | 300
Cc1ccc(-c2cc(CN(C)C)nc(Cc3ccccc3)n2)cc1 [Example 112, (2-Benzyl-6-p-tolyl-pyrimidin-4-ylmethyl)-dimethyl-amine] | > 10000 | > 10000 | > 10000 |  | 130
Cc1ccc(-c2cc(CN3CCN(C)CC3)nc(Cc3ccccc3)n2)cc1 [Example 113, 2-Benzyl-4-(4-methyl-piperazin-1-ylmethyl)-6-p-tolyl-pyrimidine] | > 10000 | > 10000 | > 10000 |  | 650
CNCc1cc(-c2ccc(F)cc2)nc(C(C)C)n1 [Example 114, [6-(4-Fluoro-phenyl)-2-isopropyl-pyrimidin-4-ylmethyl]-methyl-amine] | > 10000 | 300 | 1000 |  | 35
Cc1ccc(-c2cc(CCN)nc(Cc3ccccc3)n2)cc1 [Example 115, 2-(2-Benzyl-6-p-tolyl-pyrimidin-4-yl)-ethylamine] | 5000 | 5000 | > 10000 |  | 1000
Cc1ccc(-c2nc(Cc3ccc(F)cc3)ncc2CN(C)C)cc1 [Example 116, [2-(4-Fluoro-benzyl)-4-p-tolyl-pyrimidin-5-ylmethyl]-dimethyl-amine] | > 10000 | > 10000 | > 10000 |  | 2000
Fc1ccc(-c2nc(-c3ccccc3)nc3c2CNCC3)cc1 [Example 117, 4-(4-Fluoro-phenyl)-2-phenyl-5,6,7,8-tetrahydro-pyrido[4,3-d]pyrimidine] | > 10000 | 1000 | 4000 |  | 50
CN(C)CCc1cc(-c2ccc(F)cc2)nc(C(C)(C)C)n1 [Example 167, {2-[2-tert-Butyl-6-(4-fluoro-phenyl)-pyrimidin-4-yl]-ethyl}-dimethyl-amine] | 450 | 14 | 200 |  | 7
